Laboratory results: patent US6403347B1, “HIV integrase inhibitors” (Merck & Co., Inc., priority 1999, dated 2002)
Where two headings read alike, the source gives them in different places.

Experiments:
[1] = target: HIV-1 integrase (Human immunodeficiency virus type 1 group M subtype B, UniProt P12497); experiment: HIV integrase substrate cleavage (trimming of the 3′ end of HIV long terminal repeat terminus)
Procedure: HIV Integrase Substrate Cleavage
An assay for trimming of the 3′ and of HIV long terminal repeat terminus by HIV-1 integrase was conducted according to LaFemina, R. L. et al., J. Virol 10, 5624 (1991), herein incorporated by reference for these purposes. To assay inhibition of HIV integrase substrate cleavage, the reaction was conducted with inhibitor having various concentrations in the range of 0.75 to 100 μM.

[2] = target: HIV integrase (Human immunodeficiency virus type 1 group M subtype B, UniProt P12497); experiment: Strand transfer assay for HIV integrase (microtiter assay, ligation of processed donor DNA to nicked host DNA)
Procedure: Strand Transfer Assay for HIV Integrase
A microtiter assay for ligation of processed donor (HIV) DNA to unspecific, nicked host DNA was conducted according to Hazuda, D. J. et al., Nucl. […] To assay inhibition of such strand transfer by HIV integrase, the reaction was conducted with inhibition having various concentrations in the range of 0.75 to 100 μM.

Structure (SMILES)	IC50 [1] [µM]	IC50 [2] [µM]	IC50 ([1]; inhibition of HIV integrase substrate cleavage, inhibitor concentrations 0.75 to 100 μM) [µM]	IC50 ([2]; inhibition of strand transfer by HIV integrase, concentrations 0.75 to 100 μM) [µM]
CC1Oc2cc3c(-c4c(O)cc(O)c5c(O)c6c(cc45)OC(C)C(C)C6=O)c(O)cc(O)c3c(O)c2OC(=O)C1C (centres unmarked) [Compound C]	3	9	–	–
CC(=O)Oc1cc(OC(C)=O)c2c(OC(C)=O)c3c(cc2c1-c1c(OC(C)=O)cc(OC(C)=O)c2c(OC(C)=O)c4c(cc12)OC(C)C(C)C4=O)OC(C)C(C)C3=O (centres unmarked) [E]	50	–	–	–
COc1cc(OC)c2c(OC)c3c(cc2c1-c1c(OC)cc(OC)c2c(OC)c4c(cc12)OC(C)C(C)C4=O)OC(C)C(C)C3=O (centres unmarked) [Compound G]	60	–	–	–
COc1cc(O)c2c(OC)c3c(cc2c1-c1c(OC)cc(OC)c2c(OC)c4c(cc12)OC(C)C(C)C4=O)OC(C)C(C)C3=O (centres unmarked) [Compound F]	40	–	–	–
CC1Oc2cc3c(-c4c(O)cc(O)c5c(O)c6c(cc45)OC(C)C(C)C6=O)c(O)cc(O)c3c(O)c2C(=O)C1C (single isomer, unassigned) [Compound B]	–	–	2	12
CC1Oc2cc3c(-c4c(O)cc(O)c5c(O)c6c(cc45)OC(C)C(C)C6=O)c(O)cc(O)c3c(O)c2C(=O)C1C (single isomer, unassigned) [Compound A]	2	12	–	–
Cc1oc2cc3c(-c4c(O)cc(O)c5c(O)c6c(cc45)OC(C)C(C)C6=O)c(O)cc(O)c3c(O)c2c(=O)c1C (centres unmarked) [Compound D]	1	4	–	–
